ChEMBL document CHEMBL5653631, “A Potent and Selective ULK1 Inhibitor Suppresses Autophagy and Sensitizes Cancer Cells to Nutrient Stress” (iScience, 2018)

Experiments:
[1] = biological target: Calcium/calmodulin-dependent protein kinase type II subunit beta (Homo sapiens) (UniProt Q13554); assay: Inhibition of human recombinant CaMK2b at 40 nM related to control ULK1
[2] = biological target: Dual specificity mitogen-activated protein kinase kinase 2 (Homo sapiens) (UniProt P36507); assay: Inhibition of human recombinant MAP2K2 at 40 nM in presence of ATP by radiometric assay relative to control
Sequence of Dual specificity mitogen-activated protein kinase kinase 2 (Homo sapiens) (P36507 whole entry): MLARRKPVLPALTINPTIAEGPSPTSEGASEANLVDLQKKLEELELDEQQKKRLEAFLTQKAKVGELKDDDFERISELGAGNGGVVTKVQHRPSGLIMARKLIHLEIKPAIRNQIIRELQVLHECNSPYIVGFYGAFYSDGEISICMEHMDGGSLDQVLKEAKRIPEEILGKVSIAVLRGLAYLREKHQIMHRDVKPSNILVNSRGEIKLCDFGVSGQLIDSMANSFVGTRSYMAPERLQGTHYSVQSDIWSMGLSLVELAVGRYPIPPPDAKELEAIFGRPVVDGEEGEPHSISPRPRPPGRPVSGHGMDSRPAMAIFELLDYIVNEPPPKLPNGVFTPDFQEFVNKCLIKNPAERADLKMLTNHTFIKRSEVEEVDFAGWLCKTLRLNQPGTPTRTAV

[3] = biological target: Tyrosine-protein kinase HCK (Homo sapiens) (UniProt P08631); assay: Inhibition of human recombinant HCK at 500 nM in presence of ATP by radiometric assay relative to control
Sequence of Tyrosine-protein kinase HCK (Homo sapiens) (P08631 2-526 limits assumed): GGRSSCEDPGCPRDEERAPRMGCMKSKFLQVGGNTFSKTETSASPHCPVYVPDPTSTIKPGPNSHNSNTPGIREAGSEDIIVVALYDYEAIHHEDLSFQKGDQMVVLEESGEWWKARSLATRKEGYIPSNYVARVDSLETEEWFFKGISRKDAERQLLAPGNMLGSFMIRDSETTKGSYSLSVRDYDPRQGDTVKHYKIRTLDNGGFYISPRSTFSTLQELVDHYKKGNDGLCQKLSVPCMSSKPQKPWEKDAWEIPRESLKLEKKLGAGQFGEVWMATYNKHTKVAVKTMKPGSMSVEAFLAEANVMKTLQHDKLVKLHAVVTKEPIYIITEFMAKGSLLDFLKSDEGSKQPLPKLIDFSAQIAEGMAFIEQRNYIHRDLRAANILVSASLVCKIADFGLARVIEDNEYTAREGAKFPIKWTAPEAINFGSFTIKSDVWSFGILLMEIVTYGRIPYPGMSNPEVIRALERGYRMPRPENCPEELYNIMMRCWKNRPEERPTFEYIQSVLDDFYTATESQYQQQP

[4] = biological target: T1, Aurora kinase C (Homo sapiens) (UniProt Q9UQB9); assay: Inhibition of human recombinant AurC at 500 nM related to control ULK1
T1 sequence (whole entry): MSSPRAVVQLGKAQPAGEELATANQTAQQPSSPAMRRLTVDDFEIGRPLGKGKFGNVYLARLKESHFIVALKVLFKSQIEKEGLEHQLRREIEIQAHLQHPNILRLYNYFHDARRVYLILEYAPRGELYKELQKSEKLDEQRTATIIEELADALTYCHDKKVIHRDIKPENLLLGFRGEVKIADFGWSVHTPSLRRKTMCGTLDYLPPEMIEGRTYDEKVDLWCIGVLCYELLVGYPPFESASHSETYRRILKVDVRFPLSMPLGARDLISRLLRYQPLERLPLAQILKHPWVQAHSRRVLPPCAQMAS

[5] = biological target: Fibroblast growth factor receptor 4 (Homo sapiens) (UniProt P22455); assay: Inhibition of human recombinant FGFR4 at 15 nM in presence of ATP by radiometric assay relative to control
Sequence of Fibroblast growth factor receptor 4 (Homo sapiens) (P22455 22-802 limits assumed): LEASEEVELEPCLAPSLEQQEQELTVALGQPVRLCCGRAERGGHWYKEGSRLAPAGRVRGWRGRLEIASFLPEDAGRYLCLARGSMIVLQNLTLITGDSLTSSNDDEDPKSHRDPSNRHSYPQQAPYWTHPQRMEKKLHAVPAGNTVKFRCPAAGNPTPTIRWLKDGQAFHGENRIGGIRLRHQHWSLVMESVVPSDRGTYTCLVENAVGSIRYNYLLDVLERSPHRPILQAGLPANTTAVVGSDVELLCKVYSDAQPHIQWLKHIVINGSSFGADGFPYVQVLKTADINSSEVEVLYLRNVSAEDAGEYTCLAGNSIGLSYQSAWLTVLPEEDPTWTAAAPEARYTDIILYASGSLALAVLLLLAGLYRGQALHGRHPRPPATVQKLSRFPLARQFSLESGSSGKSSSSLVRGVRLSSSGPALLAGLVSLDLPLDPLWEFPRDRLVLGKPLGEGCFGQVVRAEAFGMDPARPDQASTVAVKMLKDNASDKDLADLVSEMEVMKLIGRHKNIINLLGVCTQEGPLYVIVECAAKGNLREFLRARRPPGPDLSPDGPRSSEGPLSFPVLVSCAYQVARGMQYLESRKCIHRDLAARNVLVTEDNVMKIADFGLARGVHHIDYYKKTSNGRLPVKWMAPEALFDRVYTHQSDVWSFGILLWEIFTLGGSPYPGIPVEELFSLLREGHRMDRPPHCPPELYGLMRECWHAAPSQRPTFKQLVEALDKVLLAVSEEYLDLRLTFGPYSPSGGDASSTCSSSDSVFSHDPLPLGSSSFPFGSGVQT

[6] = biological target: T2, NUAK family SNF1-like kinase 2 (Homo sapiens) (UniProt Q9H093); assay: Inhibition of human recombinant NuaK2 at 15 nM in presence of ATP by radiometric assay relative to control
T2 sequence (whole entry): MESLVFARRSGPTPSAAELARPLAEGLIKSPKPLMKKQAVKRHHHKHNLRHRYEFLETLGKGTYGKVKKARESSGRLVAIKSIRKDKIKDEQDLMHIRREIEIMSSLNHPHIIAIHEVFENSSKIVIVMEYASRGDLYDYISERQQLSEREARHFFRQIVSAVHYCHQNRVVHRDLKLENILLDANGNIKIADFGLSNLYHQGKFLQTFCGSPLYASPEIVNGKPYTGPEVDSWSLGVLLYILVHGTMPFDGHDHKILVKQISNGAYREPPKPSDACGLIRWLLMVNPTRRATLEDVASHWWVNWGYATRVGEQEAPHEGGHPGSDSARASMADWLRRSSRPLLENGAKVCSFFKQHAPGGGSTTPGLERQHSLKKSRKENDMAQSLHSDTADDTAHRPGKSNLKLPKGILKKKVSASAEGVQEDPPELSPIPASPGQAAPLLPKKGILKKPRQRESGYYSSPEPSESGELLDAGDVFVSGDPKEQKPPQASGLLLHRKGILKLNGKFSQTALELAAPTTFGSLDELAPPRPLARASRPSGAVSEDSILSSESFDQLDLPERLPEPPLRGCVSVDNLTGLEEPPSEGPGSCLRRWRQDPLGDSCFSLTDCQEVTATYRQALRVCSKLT

[7] = biological target: T3, Serine/threonine-protein kinase ULK3 (Homo sapiens) (UniProt Q6PHR2); assay: Inhibition of human recombinant ULK3 at 15 nM in presence of ATP by radiometric assay relative to control
T3 sequence (whole entry): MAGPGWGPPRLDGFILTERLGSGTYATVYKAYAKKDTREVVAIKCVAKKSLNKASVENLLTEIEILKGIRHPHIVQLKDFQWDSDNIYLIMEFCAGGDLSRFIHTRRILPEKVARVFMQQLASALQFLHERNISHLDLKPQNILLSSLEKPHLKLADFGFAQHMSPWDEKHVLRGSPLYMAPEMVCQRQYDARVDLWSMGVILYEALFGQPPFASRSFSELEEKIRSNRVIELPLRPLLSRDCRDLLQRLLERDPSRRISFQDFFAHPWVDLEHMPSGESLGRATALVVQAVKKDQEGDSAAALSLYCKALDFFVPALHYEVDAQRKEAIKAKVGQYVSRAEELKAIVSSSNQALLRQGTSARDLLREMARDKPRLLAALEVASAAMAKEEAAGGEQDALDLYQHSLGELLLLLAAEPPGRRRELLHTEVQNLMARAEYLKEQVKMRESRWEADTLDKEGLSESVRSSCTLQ

[8] = biological target: Dual specificity protein kinase CLK4 (Homo sapiens) (UniProt Q9HAZ1); assay: Inhibition of human recombinant CLK4 at 15 nM in presence of ATP by radiometric assay relative to control
Sequence of Dual specificity protein kinase CLK4 (Homo sapiens) (Q9HAZ1 whole entry, looked up): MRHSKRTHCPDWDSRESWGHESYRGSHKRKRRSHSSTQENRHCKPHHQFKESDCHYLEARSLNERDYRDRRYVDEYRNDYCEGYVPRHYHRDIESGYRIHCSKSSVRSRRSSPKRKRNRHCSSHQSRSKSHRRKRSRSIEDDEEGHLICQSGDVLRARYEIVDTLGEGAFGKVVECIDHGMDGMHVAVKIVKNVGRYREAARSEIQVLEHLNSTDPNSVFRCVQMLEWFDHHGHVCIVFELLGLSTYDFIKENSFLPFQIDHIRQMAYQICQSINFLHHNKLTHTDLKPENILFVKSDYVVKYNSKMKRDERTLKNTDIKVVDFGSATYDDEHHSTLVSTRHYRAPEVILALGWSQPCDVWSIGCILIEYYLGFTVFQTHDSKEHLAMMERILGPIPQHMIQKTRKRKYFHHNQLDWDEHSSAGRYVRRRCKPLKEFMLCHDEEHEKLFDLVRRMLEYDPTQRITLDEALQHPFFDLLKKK

[9] = biological target: Tyrosine-protein kinase Lck (Homo sapiens) (UniProt P06239); assay: Inhibition of human recombinant LCK at 15 nM related to control ULK1
Sequence of Tyrosine-protein kinase Lck (Homo sapiens) (P06239 2-509 limits assumed): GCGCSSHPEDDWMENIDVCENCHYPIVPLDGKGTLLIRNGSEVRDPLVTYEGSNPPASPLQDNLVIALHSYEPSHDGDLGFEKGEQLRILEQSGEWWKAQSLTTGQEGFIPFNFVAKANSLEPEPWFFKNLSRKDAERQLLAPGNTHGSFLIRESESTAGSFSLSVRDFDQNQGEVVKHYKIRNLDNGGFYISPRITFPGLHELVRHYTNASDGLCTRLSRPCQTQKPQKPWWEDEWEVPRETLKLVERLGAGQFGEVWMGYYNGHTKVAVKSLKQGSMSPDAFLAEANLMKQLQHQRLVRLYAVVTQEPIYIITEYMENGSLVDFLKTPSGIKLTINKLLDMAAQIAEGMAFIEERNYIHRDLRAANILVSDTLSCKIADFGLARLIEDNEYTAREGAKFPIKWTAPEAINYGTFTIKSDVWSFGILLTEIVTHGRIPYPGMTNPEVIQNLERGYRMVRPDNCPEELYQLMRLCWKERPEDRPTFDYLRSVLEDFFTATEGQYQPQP

[10] = biological target: RAC-gamma serine/threonine-protein kinase (Homo sapiens) (UniProt Q9Y243); assay: Inhibition of human recombinant AKT3 at 15 nM related to control ULK1
Sequence of RAC-gamma serine/threonine-protein kinase (Homo sapiens) (Q9Y243 whole entry): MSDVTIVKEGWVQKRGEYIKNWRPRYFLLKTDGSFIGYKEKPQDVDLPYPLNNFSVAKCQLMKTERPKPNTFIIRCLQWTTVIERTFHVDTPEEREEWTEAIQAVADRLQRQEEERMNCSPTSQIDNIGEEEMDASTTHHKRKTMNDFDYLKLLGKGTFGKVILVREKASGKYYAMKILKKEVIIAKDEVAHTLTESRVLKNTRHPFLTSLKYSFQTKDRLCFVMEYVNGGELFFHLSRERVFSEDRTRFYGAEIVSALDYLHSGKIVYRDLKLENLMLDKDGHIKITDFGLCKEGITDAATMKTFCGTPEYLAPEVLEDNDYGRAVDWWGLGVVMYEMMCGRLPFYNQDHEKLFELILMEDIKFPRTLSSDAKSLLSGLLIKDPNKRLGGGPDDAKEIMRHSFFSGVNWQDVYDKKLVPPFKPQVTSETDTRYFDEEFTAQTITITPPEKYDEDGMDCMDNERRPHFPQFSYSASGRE

[11] = biological target: T4, Protein kinase C epsilon type (Homo sapiens) (UniProt Q02156); assay: Inhibition of human recombinant PKCe at 15 nM related to control ULK1
T4 sequence (whole entry): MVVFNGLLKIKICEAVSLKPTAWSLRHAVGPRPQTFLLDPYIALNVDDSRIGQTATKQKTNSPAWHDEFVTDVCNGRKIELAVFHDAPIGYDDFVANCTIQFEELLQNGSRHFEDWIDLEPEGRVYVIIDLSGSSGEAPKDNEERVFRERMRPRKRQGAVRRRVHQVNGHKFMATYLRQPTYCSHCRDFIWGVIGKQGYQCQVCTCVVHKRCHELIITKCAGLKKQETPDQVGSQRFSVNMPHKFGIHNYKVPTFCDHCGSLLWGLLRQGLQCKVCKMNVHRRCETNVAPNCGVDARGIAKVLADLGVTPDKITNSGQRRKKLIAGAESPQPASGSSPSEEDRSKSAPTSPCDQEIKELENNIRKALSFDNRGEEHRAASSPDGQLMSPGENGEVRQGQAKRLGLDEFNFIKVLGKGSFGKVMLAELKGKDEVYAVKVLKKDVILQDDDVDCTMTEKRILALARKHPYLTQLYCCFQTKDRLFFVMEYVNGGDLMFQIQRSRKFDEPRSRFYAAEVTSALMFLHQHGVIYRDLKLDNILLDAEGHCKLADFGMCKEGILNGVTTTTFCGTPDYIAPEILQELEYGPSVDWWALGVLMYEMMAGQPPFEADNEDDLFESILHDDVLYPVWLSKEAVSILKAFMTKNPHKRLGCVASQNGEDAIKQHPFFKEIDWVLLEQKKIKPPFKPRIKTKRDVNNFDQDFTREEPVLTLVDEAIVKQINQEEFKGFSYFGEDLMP

[12] = biological target: DNA-PK/Ku70/Ku85 (Homo sapiens) (UniProt P78527+P12956+P13010); assay: Inhibition of human recombinant DNAPK at 15 nM related to control ULK1; type: protein-complex assay

Sequence of Calcium/calmodulin-dependent protein kinase type II subunit beta (Homo sapiens) (Q13554 whole entry): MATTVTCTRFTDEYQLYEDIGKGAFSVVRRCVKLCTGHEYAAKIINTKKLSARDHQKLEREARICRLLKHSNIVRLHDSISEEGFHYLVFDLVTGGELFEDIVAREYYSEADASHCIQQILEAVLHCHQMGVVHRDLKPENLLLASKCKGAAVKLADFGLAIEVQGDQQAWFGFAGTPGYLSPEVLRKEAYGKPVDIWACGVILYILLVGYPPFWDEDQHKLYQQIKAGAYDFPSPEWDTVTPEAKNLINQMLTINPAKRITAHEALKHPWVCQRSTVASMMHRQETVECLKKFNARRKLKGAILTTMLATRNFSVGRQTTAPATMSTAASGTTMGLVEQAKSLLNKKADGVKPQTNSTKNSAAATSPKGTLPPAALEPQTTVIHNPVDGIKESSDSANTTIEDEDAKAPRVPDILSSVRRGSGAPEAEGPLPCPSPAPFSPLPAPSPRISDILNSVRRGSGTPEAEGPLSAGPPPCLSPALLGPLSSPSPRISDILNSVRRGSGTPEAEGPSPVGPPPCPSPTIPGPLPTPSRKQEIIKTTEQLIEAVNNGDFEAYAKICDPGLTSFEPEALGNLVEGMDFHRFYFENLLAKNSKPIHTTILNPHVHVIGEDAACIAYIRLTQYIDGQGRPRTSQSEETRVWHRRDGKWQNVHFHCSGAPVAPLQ

## O=C(N[C@@H](C1CC1)C(F)(F)F)c1cc(-c2cnn3cc(-c4ccc(F)cc4)cnc23)cs1
[1]
  fold change (FC): 0
[2]
  inhibition: 0%

## CNC(=O)c1ccccc1Oc1nc(Nc2cc(OC)c(OC)c(OC)c2)ncc1Br
[3]
  inhibition: 17%
[4]
  fold change (FC): 0.99

## CC(C)[C@H](NC(=O)c1cc(-c2cnn3cc(-c4ccc(OCCN5CCCCC5)cc4)cnc23)cs1)C(F)(F)F
[5]
  inhibition: 0%
[6]
  inhibition: 18%
[7]
  inhibition: 40%
[8]
  inhibition: 83%
[9]
  fold change (FC): 0.13
[10]
  fold change (FC): 0.09
[11]
  fold change (FC): 0
[12]
  fold change (FC): 0
